Assay results as given in patent publication US20040106877A1, “Method and device for determining state of skin surface” (priority 2000, published 2004).
Like-named read-outs stand apart in the source and are kept apart here. No end group written: not given here.

Tests used:
Type in all cases: cell-based
[1] = tested on: skin sections of a hairless mouse
[2] = tested on: skin sections of a hairless mouse; experiment: Skin surface potential difference relative to culture solution, capsaicin coated on the skin surface; details: FIG. 6
From the text: In a second method, upon measuring the skin surface condition of the first method, stimulation is imparted further to the skin model comprising a skin section and a culture solution to measure aforementioned potential difference. This potential difference changes as stimulation is imparted. This change means that a stream of ions has occurred in the epidermis. The direction of a stream of ions differs depending on stimulation. When there is a change compared to the value of untreated skin, it is interpreted that stimulation producing mobility of ions is imparted to the epidermis. The degree of skin stimulation is measured from the changed value. Upon imparting stimulation, the place of stimulation may be on skin surface or culture solution. In the case of skin surface, examples of methods for imparting stimulation include coating skin with a stimulating substance and physical stimulation. Also, in the case of culture solution, the method used is addition of stimulating substances. Examples of these stimulating substances include neuropeptide, histamine, surfactant, organic acid, and capsaicin. […] In addition, examples of said physical stimulation include barrier destruction by a cellophane adhesive tape and the like.

[3] = tested on: skin sections of a hairless mouse; experiment: Skin surface potential difference relative to culture solution, substance P (SP) stimulation; details: FIG. 3

For `Nc1ccncc1` [AP, aminopyridine], the “inhibition of the tape-stripping-induced change in potential difference” value ([1]; drug added to culture solution after tape stripping, average of five measurements, FIG. 4, FIG. 5) was “reduces the change in potential difference”.

With `NC1=N[C@H](O)[C@H]2[C@H]3O[C@]4(O)O[C@@H]([C@@H](O)[C@@]2(N1)[C@@H]4O)[C@]3(O)CO` [TTX, tetrodotoxin] the “inhibition of the tape-stripping-induced change in potential difference” value [1] was “does not inhibit the change in a potential difference”.

`COc1cc(CNC(=O)CCCC/C=C/C(C)C)ccc1O` [capsaicin] was tested, and the “time of maximum change in potential difference after coating” value ([2]; capsaicin coated on skin surface) was 0.5 h and the “change in potential difference of the skin surface relative to culture solution after stimulating substance” value ([2]; capsaicin coated on skin surface, compared with non-treated skin surface (control), average of five measurements) was “a rapid change in potential difference”.

`Oc1cc2c(cc1O)CN(C(=S)NCCc1ccc(Cl)cc1)CCC2` [capsazepine] was tested, and the “inhibition of the capsaicin-induced change in potential difference” value ([2]; drug coated on skin surface after capsaicin) was “the range of change in potential difference is reduced”.

For “[D-Arg1, D-Trp7, 9, Leu11]-SubstanceP [SP antagonist]”, the “inhibition of the SP-induced change in potential difference” value ([3]; drug added to culture solution before adding SP, observed for 2 hours) was “no rapid and significant change in potential difference is produced”.

With “substance P (RPKPQQFFGLM; ends and bridges not checked; UniProt P20366 58-68, looked up) [SP, neuropeptide used as a stimulating substance]” the “time after addition when the potential difference returns to a value close to control” value ([3]; SP added to culture solution) was 2 h, the “time of peak of the potential difference change after addition” value ([3]; SP added to culture solution) was 1 h and the “change in potential difference of the skin surface relative to culture solution after stimulating substance” value ([3]; SP added to culture solution, compared with non-treated skin surface (control), average of five measurements) was “a rapid change in a potential difference is produced”.
